Active and inactive are the calls of the source. The rule behind the calls is not given here.
How the values were obtained:
[1] = system: A549; assay: Induction of apoptosis in human A549 cells assessed as late apoptotic cells at 4 uM incubated for 48 hrs by Annexin V-FITC and PI staining based flow cytometric analysis (reference value: 0.73%); format: functional
[2] = system: Lewis lung carcinoma; assay: Antitumor activity against mouse Lewis lung carcinoma cell line implanted in C57BL/6J mouse assessed as nuclear chromatin marginalization at 0.5 to 1 mg/kg, ip administered every day for 19 days by H and E staining based analysis; format: functional, organism-based; conditions: dose 0.5-1 mg/kg, time 19.0 day
[3] = system: A549; assay: Induction of apoptosis in human A549 cells assessed as decrease in PARP level at 2 to 4 uM by Western blot analysis; format: functional, cell-based; conditions: dose 2-4 µM
[4] = system: A549; assay: Induction of apoptosis in human A549 cells assessed as viable cells at 4 uM incubated for 48 hrs by Annexin V-FITC and PI staining based flow cytometric analysis (reference value: 93.8%); format: functional; conditions: read-out: Activity
[5] = Antitumor activity against mouse Lewis lung carcinoma cell line implanted in C57BL/6J mouse assessed as tumor growth inhibition at 0.5 mg/kg, ip administered every day for 19 days; format: functional; conditions: 456 h, time 19 day, read-out: TGI
[6] = system: A549; assay: Inhibition of PI3K phosphorylation in human A549 cells at 2 to 4 uM by Western blot analysis; format: cell-based; conditions: dose 2-4 µM
[7] = system: A549; assay: Induction of apoptosis in human A549 cells assessed as increase in cleaved caspase-8 expression at 2 to 4 uM by Western blot analysis; format: functional, cell-based; conditions: dose 2-4 µM
[8] = system: A549; assay: Induction of cell cycle arrest in human A549 cells assessed as decrease in CDK2 level at 2 to 4 uM by Western blot analysis; format: functional, cell-based; conditions: dose 2-4 µM
[9] = system: Lewis lung carcinoma; assay: Antitumor activity against mouse Lewis lung carcinoma cell line implanted in C57BL/6J mouse assessed as tumor cell contraction at 0.5 to 1 mg/kg, ip administered every day for 19 days by H and E staining based analysis; format: functional, organism-based; conditions: dose 0.5-1 mg/kg, time 19.0 day
[10] = Toxicity in C57BL/6J mouse implanted with mouse Lewis lung carcinoma cell line assessed as spleen damage at 0.5 to 1 mg/kg, ip administered every day for 19 days; format: organism-based; conditions: in vivo, 456 h, dose 0.5-1 mg/kg, time 19 day
[11] = Toxicity in C57BL/6J mouse implanted with mouse Lewis lung carcinoma cell line assessed as decrease in body weight at 0.5 to 1 mg/kg, ip administered every day for 19 days; format: organism-based; conditions: in vivo, 456 h, dose 0.5-1 mg/kg, time 19 day
[12] = Toxicity in C57BL/6J mouse implanted with mouse Lewis lung carcinoma cell line assessed as heart damage at 0.5 to 1 mg/kg, ip administered every day for 19 days; format: organism-based; conditions: in vivo, 456 h, dose 0.5-1 mg/kg, time 19 day

## CC1=C(OC(=O)/C=C/c2ccccc2)C(=O)C=C2C1=CC=C1[C@@]2(C)CC[C@@]2(C)[C@@H]3C[C@](C)(C(=O)NCc4nc(C)c(C)nc4C)CC[C@]3(C)CC[C@]12C
[1]
  Activity: 33.4%
[2]
  Activity: Active
[3]
  Activity: Active
[4]
  viability at 4 µM: 45.1%
[5]
  inhibition in vivo at 0.5 mg/kg: 69.9%
[6]
  inhibition: Active
[7]
  Activity: Active
[8]
  Activity: Active
[9]
  Activity: Active
[10]
  Activity: Non-Toxic
[11]
  Activity: Non-Toxic
[12]
  Activity: Non-Toxic

— ChEMBL document CHEMBL5634079, “Development of novel celastrol-ligustrazine hybrids as potent peroxiredoxin 1 inhibitors against lung cancer” (Eur J Med Chem, 2023)
